According to ChEMBL document CHEMBL1201862, “PubChem BioAssay data set” (2004):
Activity calls are given as the source filed them.

Assays:
[1] = blockade of melanocortin 4 receptor signaling – cell-based, plate reader, cherry pick, counter-screen for LGR2 antagonist project, dose response (AID 743444); type: functional;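 note: transfected HEK 293 cells stimulated with alpha-MSH peptide; potency of inhibitors of the alpha-MSH evoked signal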
[2] = target: T1, Heat shock factor protein 1 (Mus musculus, UniProt P38532); experiment: enhancement of HSF1-driven luciferase signal – cell-based, NIH3T3, luminescence, dose retest, confirmation (AID 435004); type: functional;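 note: stress induced by proteasome inhibitor MG132 added 30 min after compound; luciferase reporter driven by HSF1 response element in NIH3T3 cells; actives raise luminescence as potentiators of the MG132 stress response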
T1 sequence (P38532 whole entry): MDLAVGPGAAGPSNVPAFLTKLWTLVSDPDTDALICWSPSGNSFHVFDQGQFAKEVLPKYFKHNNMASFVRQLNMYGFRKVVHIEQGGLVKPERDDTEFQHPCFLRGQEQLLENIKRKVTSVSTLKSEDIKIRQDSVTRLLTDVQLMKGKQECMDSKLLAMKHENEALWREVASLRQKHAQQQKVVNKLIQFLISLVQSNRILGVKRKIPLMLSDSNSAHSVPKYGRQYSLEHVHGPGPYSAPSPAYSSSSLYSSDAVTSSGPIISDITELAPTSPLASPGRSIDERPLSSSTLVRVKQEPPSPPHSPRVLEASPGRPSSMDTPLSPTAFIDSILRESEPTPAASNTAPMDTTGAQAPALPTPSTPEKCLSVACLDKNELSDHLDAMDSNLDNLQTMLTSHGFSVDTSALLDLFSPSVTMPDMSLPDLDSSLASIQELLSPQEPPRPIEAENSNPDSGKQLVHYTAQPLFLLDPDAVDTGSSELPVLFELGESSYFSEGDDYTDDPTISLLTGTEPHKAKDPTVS

[3] = A549 cell cytotoxicity, dose response, cytotoxicity control, plate reader, cherry-pick, antagonist series (AID 743412); type: functional, cell-based
[4] = blockers of bursicon-stimulated LGR2 cAMP reporter – cell-based, HEK293, CRE-luciferase reporter, cherry pick, set 2, dose response (AID 743343); type: functional;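 note: transfected cells were stimulated with diluted bursicon conditioned medium after compound addition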
[5] = target: T2, High affinity choline transporter 1 (Homo sapiens, UniProt Q9GZV3); experiment: human choline transporter blockers, potency – cell-based, 5-point CRC, membrane potential dye, dose response (AID 504840); type: functional
T2 sequence (Q9GZV3 whole entry): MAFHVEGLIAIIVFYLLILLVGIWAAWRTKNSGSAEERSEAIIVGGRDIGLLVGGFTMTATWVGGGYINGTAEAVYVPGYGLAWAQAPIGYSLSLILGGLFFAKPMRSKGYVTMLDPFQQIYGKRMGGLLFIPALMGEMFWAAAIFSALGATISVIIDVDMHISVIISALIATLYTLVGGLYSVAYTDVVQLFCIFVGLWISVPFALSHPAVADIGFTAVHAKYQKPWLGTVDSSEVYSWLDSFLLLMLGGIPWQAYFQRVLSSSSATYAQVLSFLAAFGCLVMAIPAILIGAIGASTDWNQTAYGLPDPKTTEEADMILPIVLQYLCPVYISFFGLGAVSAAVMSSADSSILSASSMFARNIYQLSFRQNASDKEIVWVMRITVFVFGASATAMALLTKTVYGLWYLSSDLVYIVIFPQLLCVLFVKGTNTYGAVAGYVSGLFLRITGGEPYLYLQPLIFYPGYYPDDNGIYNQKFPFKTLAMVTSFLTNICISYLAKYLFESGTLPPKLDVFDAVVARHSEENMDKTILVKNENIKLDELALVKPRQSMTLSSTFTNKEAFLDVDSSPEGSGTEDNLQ

[6] = Luminescence Cell-Based Dose Retest to Confirm Inhibitors of Cancer Stem Cells. [Related pubchem assays (depositor defined):AID2717, AID2721]; type: functional; conditions: Homo sapiens
[7] = target: T3, Mannose-6-phosphate isomerase (Homo sapiens, UniProt P34949); experiment: MPI inhibition at elevated mannose 6-phosphate – biochemical, fluorescence intensity, high mannose 6-phosphate, primary screen (AID 1220)
T3 sequence (P34949 whole entry): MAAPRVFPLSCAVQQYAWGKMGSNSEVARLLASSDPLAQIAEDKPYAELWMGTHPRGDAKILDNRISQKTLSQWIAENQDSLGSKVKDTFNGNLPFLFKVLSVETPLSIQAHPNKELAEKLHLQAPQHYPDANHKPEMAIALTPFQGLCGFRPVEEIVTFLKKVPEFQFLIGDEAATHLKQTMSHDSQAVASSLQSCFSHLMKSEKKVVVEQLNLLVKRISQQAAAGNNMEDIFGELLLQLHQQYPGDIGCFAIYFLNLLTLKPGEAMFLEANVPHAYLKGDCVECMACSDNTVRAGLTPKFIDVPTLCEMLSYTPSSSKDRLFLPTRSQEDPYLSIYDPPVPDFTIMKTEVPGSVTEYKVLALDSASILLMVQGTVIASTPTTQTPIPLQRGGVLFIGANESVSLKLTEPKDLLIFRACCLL

Genome polyprotein = Genome polyprotein (dengue virus type 2, UniProt P29990); experiment: flavivirus cap methylation enzyme inhibition – biochemical, confirmation dose response, primary screen (AID 588689); type: functional
Chain of Genome polyprotein (P29990 2492-3391 limits assumed): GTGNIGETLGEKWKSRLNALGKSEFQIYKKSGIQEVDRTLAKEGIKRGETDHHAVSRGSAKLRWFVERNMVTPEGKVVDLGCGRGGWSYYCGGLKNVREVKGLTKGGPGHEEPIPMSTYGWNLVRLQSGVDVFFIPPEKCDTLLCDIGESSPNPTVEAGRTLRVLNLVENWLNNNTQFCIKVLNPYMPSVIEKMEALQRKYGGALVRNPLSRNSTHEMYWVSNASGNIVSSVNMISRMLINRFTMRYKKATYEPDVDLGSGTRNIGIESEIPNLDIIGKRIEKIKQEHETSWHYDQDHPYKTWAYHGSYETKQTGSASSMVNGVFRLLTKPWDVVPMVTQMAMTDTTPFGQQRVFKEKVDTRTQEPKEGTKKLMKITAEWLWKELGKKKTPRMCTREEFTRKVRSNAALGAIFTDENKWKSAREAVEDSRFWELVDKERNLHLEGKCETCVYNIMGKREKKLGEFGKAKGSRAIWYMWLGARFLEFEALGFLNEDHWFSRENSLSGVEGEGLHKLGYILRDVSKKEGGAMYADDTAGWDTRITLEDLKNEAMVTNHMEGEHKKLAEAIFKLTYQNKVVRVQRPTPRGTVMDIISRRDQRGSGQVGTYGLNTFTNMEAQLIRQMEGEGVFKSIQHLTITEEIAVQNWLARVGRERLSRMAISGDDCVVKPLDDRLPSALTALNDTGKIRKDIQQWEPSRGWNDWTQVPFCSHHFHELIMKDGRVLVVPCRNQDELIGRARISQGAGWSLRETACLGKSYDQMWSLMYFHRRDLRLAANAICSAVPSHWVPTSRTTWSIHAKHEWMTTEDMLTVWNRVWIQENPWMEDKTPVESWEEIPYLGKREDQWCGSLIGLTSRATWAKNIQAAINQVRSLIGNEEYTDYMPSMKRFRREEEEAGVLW

[8] = target: Eukaryotic translation initiation factor 4E (Mus musculus, UniProt P63073); experiment: blockers of eIF4G binding by eIF4E – biochemical, TR-FRET, dose response (AID 855); type: functional;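 note: potency for disrupting eIF4E binding to eIF4GI seen as loss of FRET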
Chain of Eukaryotic translation initiation factor 4E (P63073 whole entry): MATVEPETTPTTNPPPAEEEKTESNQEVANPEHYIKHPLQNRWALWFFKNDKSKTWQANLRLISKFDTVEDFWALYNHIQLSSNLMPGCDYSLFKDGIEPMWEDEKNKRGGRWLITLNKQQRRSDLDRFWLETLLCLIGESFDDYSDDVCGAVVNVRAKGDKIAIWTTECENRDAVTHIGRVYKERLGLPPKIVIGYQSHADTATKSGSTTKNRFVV

[9] = target: T4, Replicative DNA helicase DnaB (Mycobacterium tuberculosis, UniProt P9WMR3); experiment: DnaB intein splicing inhibitors, dose response, biochemical, cell-free fluorescence (AID 449749); type: functional
T4 sequence (P9WMR3 whole entry): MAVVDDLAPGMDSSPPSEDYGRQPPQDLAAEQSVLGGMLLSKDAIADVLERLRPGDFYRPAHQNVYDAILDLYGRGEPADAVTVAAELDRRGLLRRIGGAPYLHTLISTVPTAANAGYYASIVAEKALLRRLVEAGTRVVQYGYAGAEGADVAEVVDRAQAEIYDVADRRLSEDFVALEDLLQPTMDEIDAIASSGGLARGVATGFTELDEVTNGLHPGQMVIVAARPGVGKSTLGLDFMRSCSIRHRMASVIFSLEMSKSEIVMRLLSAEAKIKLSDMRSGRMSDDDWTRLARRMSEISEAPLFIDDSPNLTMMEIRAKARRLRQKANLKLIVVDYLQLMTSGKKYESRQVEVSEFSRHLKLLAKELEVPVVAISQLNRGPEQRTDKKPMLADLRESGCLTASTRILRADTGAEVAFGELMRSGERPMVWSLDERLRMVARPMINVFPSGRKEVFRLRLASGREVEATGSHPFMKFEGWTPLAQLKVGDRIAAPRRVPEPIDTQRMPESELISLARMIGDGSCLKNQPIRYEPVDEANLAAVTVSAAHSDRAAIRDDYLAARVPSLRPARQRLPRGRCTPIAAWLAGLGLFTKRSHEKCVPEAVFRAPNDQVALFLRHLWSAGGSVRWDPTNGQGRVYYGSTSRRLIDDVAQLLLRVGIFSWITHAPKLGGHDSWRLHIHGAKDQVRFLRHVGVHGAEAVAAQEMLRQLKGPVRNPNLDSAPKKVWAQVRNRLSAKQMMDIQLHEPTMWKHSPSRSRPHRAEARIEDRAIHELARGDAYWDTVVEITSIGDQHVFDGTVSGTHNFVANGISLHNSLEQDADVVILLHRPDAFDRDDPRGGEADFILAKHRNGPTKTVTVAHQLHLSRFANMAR

Protein RecA = target: T5, Protein RecA (Mycobacterium tuberculosis, UniProt P9WHJ3); experiment: Fluorescence Cell-Free Homogeneous Dose Retest to Identify Inhibitors of RecA-Intein Splicing Activity. [Related pubchem assays (depositor defined):AID2097, AID2223, AID489010, AID492950]; type: functional
T5 sequence (P9WHJ3 whole entry): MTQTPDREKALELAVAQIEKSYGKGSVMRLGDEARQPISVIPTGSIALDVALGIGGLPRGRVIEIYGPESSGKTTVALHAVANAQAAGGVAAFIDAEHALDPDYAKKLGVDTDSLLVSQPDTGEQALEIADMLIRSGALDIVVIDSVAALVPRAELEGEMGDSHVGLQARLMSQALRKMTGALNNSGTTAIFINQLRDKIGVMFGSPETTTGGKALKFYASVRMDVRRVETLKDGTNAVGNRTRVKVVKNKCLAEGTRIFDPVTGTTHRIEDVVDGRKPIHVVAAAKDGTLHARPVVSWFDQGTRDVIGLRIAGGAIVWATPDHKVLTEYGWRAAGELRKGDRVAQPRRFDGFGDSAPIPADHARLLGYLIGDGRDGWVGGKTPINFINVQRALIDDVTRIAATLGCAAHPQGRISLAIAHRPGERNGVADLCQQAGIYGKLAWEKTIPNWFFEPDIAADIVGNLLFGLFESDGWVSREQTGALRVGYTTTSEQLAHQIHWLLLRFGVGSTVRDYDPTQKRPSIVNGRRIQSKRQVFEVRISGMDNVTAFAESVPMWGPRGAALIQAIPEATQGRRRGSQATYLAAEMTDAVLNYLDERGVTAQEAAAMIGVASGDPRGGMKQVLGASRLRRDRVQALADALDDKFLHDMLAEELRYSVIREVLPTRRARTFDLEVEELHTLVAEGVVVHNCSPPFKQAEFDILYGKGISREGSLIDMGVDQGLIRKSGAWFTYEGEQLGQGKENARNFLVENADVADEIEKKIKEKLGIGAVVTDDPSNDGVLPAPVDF

[10] = target: T6, Low molecular weight phosphotyrosine protein phosphatase (Homo sapiens, UniProt P24666); type: functional; conditions: read-out: IC50_Mean;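 note: Dose-response confirmation assay measuring inhibition of LMPTP enzyme activity by fluorescence intensity read-out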
T6 sequence (P24666 whole entry): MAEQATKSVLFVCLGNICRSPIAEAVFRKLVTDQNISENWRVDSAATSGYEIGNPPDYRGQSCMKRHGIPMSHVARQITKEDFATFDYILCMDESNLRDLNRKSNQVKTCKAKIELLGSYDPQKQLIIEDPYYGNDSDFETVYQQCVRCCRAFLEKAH

[11] = general mammalian cell viability loss – inhibitor set, cherry-pick, set 2, cytotoxicity control for miR-122 modulator project, dose response (AID 720697); type: functional, cell-based
[12] = alpha-synuclein stem-loop luciferase translation blockers – H4 neuroglioma cells, luminescence, confirmation (AID 1988); type: functional, cell-based
[13] = luciferase reporter signal suppression in cells – H4 neuroglioma cells, luminescence, dose response (AID 1990); type: functional, cell-based
[14] = Luminescence Cell-Based Dose Response HTS to Identify Inhibitors of 5'UTR Stem-Loop Driven Prion Protein mRNA Translation in H4 Neuroglioblastoma Cells. [Related pubchem assays: 1827 (Project Summary), 1813 (Primary HTS)]; type: functional

Structure (SMILES): Oc1nc(CSc2ccccn2)nc2c1oc1ccccc12
- AC50 [1]: 6.77 µM (active)
- EC50 [2]: > 260 µM (inconclusive)
- AC50 [3]: > 52 µM (inactive)
- AC50 [4]: 5.23 µM (active)

Structure (SMILES): CCc1ccc2oc(C(=O)NCC(c3ccc(OC)cc3)N3CCCCC3)c(C)c2c1 (stereo not given)
- IC50 [5]: 2.29 µM (active)
- AC50 [6]: 3.23 µM (active)

Structure (SMILES): Oc1cc(O)c2sc(Nc3ccc(F)cc3)nc2n1
- IC50 [7]: > 50 µM (not active)

Structure (SMILES): Cc1ccc(C)c(C(=O)COc2ncnc3ccccc23)c1
- IC50 [5]: 15.1 µM (active)

Structure (SMILES): O=C1NC(=O)C(=Cc2c[nH]nc2-c2ccccc2)C(=O)N1
- IC50 (Genome polyprotein): 53 µM (active)

Structure (SMILES): Nc1nc2c(s1)CCc1c-2cnn1-c1ccccc1
- IC50 [8]: > 64 µM (inactive)
- IC50 [7]: 1.42 µM (active)

Structure (SMILES): COc1ccc(N2C(=O)C(Cl)=C(N3CCOCC3)C2=O)cc1
- AC50 [9]: 10.8 µM (active)
- IC50 (Genome polyprotein): 33.1 µM (active)
- EC50 (Protein RecA): 3 µM (active)

Structure (SMILES): COc1ccc(-c2cc(C(=O)Nc3cc(Br)ccc3O)no2)cc1
- IC50 [10]: 2.09 µM (active)

Structure (SMILES): Cc1nnsc1Sc1cccc(C(F)(F)F)c1
- AC50 [11]: 8.67 µM (active)

Structure (SMILES): Nc1c(C(=O)N/N=C/c2ccc(OCc3ccccc3)cc2)cnn1-c1ccccc1
- IC50 [10]: 25.9 µM (inactive)
- EC50 [12]: 11.9 µM (active)
- EC50 [13]: > 120 µM (not active)
- EC50 [14]: 21.9 µM (active)

Structure (SMILES): COc1ccc(C2(O)CCN(C(=O)NC3CCCCC3)CC2)cc1
- IC50 [5]: 14.5 µM (active)

Structure (SMILES): CCNC(=O)Nc1ccc2c(c1)C(=O)N(C)[C@@H]1CC[C@H](CC(=O)NCC3CC3)O[C@@H]1CO2
- AC50 [11]: 0.493 µM (active)

Structure (SMILES): C/C=C/c1ccc([C@H]2[C@@H](CO)N(C(=O)C3CC3)[C@H]2CNC(=O)NC(C)C)cc1
- AC50 [11]: 0.558 µM (active)

Structure (SMILES): C(=C\c1nc(N2CCCC2)c2ccccc2n1)/c1ccccc1
- IC50 [10]: 8.49 µM (active)

Structure (SMILES): CCc1ccc(S(=O)(=O)NCc2cn3cccc(C)c3n2)s1
- IC50 [5]: 13.8 µM (active)

Structure (SMILES): O=C1c2ccccc2C(O)(c2ccccc2)N1c1ccc([N+](=O)[O-])cc1Cl (stereo not given)
- IC50 (Genome polyprotein): 60.8 µM (active)

Structure (SMILES): Cc1noc(NS(=O)(=O)c2ccc(NC(=O)c3ccccc3NS(=O)(=O)c3ccc(F)cc3)cc2)c1C
- IC50 (Genome polyprotein): 40.9 µM (active)

Structure (SMILES): O=c1cc(CSc2nc(NCc3ccccc3)c3ccccc3n2)nc2ccc(Cl)cn12
- IC50 [10]: 26 µM (inactive)

Structure (SMILES): COCCn1c(C)cc(C(=O)CSc2nnnn2C2CCCC2)c1C
- AC50 [1]: 2.78 µM (active)
- AC50 [4]: 3.39 µM (active)
